Data published in ChEMBL document CHEMBL1201862, “PubChem BioAssay data set” (2004).
Activity calls are given as the source filed them.

Legend:
[1] = biological target: Heat shock protein HSP 90-alpha (Homo sapiens, UniProt P07900); test: Luminescence-based dose response biochemical high throughput screening assay for inhibitors of the Heat Shock Protein 90 (HSP90). [Related pubchem assays: 1831 (Summary AID.), 1846 (Confirmation screen.), 1789 (Primary screen.)]
[2] = biological target: Dual specificity tyrosine-phosphorylation-regulated kinase 1A (Rattus norvegicus, UniProt Q63470); assay type: biochemical, Homo sapiens
[3] = Luminescent dose response cell-based high throughput screening assay for inhibitors of the Janus kinase 2 mutant JAK2V617F. [Related pubchem assays: 1446 (Primary screen.), 1521 (Confirmation assay.), 1486 (Counter screen.)]; assay type: functional
Cytochrome P450 2C19 = Cytochrome P450 2C19 (Homo sapiens, UniProt P33261); test: Cytochrome panel assay with activity outcomes. Panel member name: p450-cyp2c19 Compounds with AC50 equal or less than 10 uM are considered active; assay type: functional; conditions: read-out: AC50
Cytochrome P450 2C19, sequence (P33261 whole entry): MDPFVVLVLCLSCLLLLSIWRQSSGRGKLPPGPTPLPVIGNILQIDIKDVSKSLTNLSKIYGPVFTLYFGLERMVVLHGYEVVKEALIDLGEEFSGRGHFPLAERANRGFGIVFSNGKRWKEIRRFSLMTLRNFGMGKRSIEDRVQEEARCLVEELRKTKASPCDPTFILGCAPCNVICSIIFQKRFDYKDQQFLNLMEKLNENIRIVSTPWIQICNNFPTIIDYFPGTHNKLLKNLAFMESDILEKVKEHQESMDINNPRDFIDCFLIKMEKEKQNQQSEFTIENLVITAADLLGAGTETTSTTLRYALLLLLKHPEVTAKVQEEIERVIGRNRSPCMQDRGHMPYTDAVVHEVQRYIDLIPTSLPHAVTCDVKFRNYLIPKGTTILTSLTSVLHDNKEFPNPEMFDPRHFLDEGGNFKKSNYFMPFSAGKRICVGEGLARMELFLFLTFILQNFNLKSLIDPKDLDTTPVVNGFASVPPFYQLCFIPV

[4] = biological target: 5-hydroxytryptamine receptor 1A (Homo sapiens, UniProt P08908); assay type: functional
5-hydroxytryptamine receptor 1A, sequence (P08908 whole entry): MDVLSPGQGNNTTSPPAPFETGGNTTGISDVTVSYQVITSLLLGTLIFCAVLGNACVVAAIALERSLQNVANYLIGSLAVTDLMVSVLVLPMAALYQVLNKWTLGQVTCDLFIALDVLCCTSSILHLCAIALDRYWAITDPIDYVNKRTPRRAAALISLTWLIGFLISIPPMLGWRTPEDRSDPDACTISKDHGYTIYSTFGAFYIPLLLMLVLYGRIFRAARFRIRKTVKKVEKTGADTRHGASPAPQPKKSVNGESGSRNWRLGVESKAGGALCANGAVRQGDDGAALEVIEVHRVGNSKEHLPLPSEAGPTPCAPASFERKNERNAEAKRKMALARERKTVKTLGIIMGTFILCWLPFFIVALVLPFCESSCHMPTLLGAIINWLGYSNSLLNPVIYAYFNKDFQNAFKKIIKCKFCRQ

[5] = biological target: T1, Polyadenylate-binding protein 1 (Homo sapiens, UniProt P11940); test: MLLE binding blockers, Cy5 peptide tracer – biochemical, fluorescence polarization, Cy5-PAM2 peptide, secondary, miRNA deadenylation inhibitor project, dose response (AID 602260); assay type: functional; conditions: read-out: IC50_Mean
T1 sequence (P11940 whole entry): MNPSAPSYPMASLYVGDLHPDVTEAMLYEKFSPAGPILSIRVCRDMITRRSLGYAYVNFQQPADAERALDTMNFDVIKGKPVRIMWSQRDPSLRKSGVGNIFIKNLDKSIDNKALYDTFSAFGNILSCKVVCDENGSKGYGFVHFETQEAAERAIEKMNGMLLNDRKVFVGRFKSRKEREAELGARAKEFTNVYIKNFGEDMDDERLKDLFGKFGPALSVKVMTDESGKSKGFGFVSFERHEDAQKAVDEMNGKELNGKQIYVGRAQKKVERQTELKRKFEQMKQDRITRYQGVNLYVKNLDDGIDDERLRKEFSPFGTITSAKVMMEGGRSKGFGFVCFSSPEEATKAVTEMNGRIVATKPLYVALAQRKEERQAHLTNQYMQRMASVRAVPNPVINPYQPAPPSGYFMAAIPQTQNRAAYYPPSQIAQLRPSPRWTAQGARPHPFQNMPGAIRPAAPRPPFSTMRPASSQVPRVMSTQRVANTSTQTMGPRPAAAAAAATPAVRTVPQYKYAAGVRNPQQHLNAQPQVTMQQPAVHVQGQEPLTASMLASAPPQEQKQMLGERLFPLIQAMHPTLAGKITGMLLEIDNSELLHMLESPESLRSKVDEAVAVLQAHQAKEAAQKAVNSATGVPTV

14-3-3 protein gamma = 14-3-3 protein gamma (Homo sapiens, UniProt P61981); test: modulators of 14-3-3 gamma client binding – dose response (AID 711); assay type: functional
14-3-3 protein gamma, sequence (P61981 whole entry, the tested form may be a part): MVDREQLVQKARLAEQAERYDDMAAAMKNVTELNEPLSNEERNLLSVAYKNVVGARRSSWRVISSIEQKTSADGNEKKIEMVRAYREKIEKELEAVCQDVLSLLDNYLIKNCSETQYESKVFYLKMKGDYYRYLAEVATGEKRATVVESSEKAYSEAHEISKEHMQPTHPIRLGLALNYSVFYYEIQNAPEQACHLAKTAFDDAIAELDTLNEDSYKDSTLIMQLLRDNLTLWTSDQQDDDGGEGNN

[6] = biological target: T2, RNA-binding protein pos-1 (Caenorhabditis elegans, UniProt G5EF15); test: disruptors of C. elegans POS-1 RNA interaction – biochemical, fluorescence polarization, dose response (AID 1964);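 further: purified POS-1 fused to maltose binding protein made in E. coli; potency of compounds blocking POS-1 binding to fluorescent RNA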
T2 sequence (G5EF15 whole entry): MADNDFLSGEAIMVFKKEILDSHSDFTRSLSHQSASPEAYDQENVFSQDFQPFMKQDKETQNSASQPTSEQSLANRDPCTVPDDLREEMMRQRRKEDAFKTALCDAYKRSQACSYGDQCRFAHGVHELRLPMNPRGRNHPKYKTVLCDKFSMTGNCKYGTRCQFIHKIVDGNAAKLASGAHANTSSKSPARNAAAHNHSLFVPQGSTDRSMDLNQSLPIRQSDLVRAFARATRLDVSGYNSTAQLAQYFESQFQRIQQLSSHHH

Estrogen receptor = biological target: T3, Estrogen receptor (Homo sapiens, UniProt P03372);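 further: potency for inhibiting coactivator peptide recruitment to the receptor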
T3 sequence (P03372 whole entry): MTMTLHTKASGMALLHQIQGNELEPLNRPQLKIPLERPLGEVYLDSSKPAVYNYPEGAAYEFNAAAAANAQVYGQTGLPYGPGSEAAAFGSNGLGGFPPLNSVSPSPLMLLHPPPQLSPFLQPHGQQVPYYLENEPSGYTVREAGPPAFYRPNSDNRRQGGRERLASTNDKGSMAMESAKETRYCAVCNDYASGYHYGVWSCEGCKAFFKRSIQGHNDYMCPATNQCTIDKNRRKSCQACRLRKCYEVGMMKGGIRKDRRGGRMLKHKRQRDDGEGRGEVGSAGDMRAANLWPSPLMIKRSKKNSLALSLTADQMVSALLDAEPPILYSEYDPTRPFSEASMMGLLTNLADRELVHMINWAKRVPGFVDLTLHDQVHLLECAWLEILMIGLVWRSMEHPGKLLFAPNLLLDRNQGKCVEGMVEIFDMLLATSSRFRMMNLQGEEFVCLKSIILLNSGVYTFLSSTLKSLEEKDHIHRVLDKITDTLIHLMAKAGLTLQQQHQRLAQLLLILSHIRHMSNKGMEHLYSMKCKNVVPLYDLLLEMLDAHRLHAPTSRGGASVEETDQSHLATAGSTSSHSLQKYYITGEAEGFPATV

[7] = biological target: T1, Polyadenylate-binding protein 1; test: MLLE domain peptide-binding blockers, IC50 – biochemical, fluorescence polarization, FITC-PAM2 peptide, dose response (AID 602259); assay type: functional; conditions: read-out: IC50_Mean
Estrogen receptor beta = Estrogen receptor beta (Homo sapiens, UniProt Q92731); test: blockers of SRC-3 recruitment to ERβ – biochemical, ELISA, streptavidin-HRP readout, orthogonal assay, confirmation (AID 1060)
Estrogen receptor beta, sequence (Q92731 whole entry): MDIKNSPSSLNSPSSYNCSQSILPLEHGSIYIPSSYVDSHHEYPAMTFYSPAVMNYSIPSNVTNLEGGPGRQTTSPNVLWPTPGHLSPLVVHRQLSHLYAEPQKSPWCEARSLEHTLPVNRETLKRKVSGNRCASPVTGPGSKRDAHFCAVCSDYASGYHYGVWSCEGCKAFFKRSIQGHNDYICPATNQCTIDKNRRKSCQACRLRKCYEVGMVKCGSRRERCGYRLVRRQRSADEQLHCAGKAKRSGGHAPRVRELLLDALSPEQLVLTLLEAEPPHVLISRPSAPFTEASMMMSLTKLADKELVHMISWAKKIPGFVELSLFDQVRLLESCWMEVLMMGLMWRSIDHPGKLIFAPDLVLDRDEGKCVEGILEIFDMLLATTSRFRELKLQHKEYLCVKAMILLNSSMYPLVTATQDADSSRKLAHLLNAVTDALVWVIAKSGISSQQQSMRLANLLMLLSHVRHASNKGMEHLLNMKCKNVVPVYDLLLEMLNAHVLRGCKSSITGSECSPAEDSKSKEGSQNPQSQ

Aminopeptidase N = biological target: T4, Aminopeptidase N (Plasmodium falciparum FcB1/Columbia, UniProt O96935); test: malaria alanyl aminopeptidase activity blockers – biochemical, fluorogenic H-Leu-NHMec substrate, 1536-well (AID 1445); design: species or system Plasmodium falciparum 3D7, 3D7
T4 sequence (O96935 whole entry): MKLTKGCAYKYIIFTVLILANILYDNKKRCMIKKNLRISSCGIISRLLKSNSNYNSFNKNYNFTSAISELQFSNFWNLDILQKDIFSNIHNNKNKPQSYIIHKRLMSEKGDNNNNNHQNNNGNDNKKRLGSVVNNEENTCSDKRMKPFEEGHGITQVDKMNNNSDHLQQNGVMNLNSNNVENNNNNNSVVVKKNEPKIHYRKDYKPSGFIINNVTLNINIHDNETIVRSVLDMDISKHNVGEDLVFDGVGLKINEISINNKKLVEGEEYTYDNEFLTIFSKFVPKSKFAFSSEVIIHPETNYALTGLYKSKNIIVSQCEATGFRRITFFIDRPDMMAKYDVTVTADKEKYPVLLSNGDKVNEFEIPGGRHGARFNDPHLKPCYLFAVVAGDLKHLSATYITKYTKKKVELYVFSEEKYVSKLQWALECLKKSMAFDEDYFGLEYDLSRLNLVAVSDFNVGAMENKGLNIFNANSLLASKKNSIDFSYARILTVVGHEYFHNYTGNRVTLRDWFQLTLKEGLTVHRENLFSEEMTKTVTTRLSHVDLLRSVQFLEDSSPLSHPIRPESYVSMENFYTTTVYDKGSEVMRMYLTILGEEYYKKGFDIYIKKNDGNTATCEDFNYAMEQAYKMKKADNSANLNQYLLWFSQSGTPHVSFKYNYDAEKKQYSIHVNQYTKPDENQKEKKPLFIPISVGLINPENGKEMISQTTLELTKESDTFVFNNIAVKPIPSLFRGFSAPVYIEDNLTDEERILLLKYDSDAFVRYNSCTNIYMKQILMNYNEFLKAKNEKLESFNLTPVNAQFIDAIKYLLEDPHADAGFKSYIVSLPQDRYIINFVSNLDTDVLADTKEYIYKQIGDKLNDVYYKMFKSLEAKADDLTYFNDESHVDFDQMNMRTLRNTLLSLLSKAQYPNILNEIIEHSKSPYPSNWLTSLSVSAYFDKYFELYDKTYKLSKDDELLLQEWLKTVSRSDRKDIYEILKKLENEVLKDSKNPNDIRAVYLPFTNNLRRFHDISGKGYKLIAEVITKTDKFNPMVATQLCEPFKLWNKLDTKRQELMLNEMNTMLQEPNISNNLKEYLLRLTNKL

[8] = biological target: T5, Zinc finger protein mex-5 (Caenorhabditis elegans, UniProt Q9XUB2); test: potency of MEX-5 RNA-binding blockers – biochemical, C. elegans, fluorescence polarization, dose response (AID 1960)
T5 sequence (Q9XUB2 whole entry): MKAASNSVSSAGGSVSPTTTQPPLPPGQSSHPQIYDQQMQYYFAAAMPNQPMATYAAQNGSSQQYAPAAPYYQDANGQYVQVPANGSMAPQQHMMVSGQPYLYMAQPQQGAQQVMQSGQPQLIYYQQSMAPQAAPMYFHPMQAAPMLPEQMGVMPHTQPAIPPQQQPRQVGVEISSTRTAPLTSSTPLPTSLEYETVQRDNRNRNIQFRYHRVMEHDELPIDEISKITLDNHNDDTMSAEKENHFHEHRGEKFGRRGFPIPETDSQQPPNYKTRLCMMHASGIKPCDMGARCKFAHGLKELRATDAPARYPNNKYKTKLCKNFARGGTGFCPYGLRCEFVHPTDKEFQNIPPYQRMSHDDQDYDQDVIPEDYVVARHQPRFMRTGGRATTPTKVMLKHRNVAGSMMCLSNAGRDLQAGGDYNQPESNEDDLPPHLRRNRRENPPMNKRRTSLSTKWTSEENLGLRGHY

[9] = biological target: Bifunctional protein GlmU (Mycobacterium tuberculosis, UniProt P9WMN3); test: Inhibitors of Mycobacterial Glucosamine-1-phosphate acetyl transferase (GlmU). Secondary screen.; design: species or system Mycobacterium tuberculosis H37Rv
Bifunctional protein GlmU, sequence (P9WMN3 whole entry): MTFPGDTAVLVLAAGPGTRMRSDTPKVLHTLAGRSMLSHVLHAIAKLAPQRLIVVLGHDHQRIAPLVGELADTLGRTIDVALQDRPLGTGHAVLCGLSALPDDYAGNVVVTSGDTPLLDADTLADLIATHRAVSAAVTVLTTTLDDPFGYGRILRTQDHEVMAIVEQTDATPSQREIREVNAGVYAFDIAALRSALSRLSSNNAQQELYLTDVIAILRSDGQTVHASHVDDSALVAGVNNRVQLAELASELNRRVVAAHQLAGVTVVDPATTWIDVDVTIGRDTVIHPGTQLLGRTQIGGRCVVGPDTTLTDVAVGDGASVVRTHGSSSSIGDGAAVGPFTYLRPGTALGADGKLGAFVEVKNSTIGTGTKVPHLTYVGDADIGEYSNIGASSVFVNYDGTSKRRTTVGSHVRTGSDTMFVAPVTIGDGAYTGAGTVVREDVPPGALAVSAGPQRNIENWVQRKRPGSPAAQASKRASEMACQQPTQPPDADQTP

[10] = Trypanosoma cruzi growth suppression in host cells – NIH3T3 host cells, beta-gal luminescence, confirmation (AID 2044); assay type: functional, cell-based;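 further: intracellular parasites grown in NIH/3T3 mouse fibroblasts as host cells; luminescent beta-galactosidase reporter signal from transgenic T. cruzi replicating inside host cells; inhibitors lower the luminescence signal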
Protein Tat = biological target: T6, Protein Tat (Human immunodeficiency virus type 1 group M subtype B (isolate HXB2)(HIV-1), UniProt P04608); assay type: functional;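 further: tat binding to TAR RNA read out by fluorescence polarization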
T6 sequence (P04608 whole entry): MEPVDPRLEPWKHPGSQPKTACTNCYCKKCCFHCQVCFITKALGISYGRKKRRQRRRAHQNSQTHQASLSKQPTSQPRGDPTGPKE

[11] = viability loss in Vero cells – cytotoxicity control for Vif-APOBEC3G degradation inhibitor project, dose response (AID 1117358); assay type: functional; conditions: Vero
[12] = NIH3T3 cell viability loss – ATP luminescence, mouse fibroblasts, counter-screen, dose response (AID 2010); assay type: functional, cell-based;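 further: cells exposed to compound for about 90 hours before reading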
[13] = biological target: Peroxisome proliferator-activated receptor gamma/Nuclear receptor corepressor 2 (Homo sapiens, UniProt P37231+Q9Y618); test: Counterscreen for NR2E3 inverse agonists: TR-FRET-based biochemical high throughput dose response assay to identify inverse agonists of the interaction between peroxisome proliferator-activated receptor gamma (PPARg) and nuclear receptor co-repressor 2 (NCOR2).; assay type: functional
[14] = biological target: Photoreceptor-specific nuclear receptor (Homo sapiens, UniProt Q9Y5X4); test: ligands suppressing NR2E3 nuclear receptor activity – biochemical, TR-FRET, dose response (AID 463256); assay type: functional
Photoreceptor-specific nuclear receptor, sequence (Q9Y5X4 whole entry): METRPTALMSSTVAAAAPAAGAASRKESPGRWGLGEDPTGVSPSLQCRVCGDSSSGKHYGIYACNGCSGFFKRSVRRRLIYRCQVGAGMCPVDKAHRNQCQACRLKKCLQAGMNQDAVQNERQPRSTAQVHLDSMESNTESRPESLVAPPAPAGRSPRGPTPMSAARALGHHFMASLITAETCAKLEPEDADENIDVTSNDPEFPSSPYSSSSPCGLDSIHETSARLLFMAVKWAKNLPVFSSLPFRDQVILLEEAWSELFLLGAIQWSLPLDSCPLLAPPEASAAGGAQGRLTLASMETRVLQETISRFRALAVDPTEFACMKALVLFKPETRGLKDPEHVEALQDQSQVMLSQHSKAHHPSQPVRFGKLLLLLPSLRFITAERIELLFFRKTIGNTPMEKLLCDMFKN

[15] = biological target: Luciferin 4-monooxygenase (Photinus pyralis, UniProt P08659); test: Counter Screen for Luciferase-based Assay Positives. [Related pubchem assays: 620, 618, 411 ]
Luciferin 4-monooxygenase, sequence (P08659 whole entry): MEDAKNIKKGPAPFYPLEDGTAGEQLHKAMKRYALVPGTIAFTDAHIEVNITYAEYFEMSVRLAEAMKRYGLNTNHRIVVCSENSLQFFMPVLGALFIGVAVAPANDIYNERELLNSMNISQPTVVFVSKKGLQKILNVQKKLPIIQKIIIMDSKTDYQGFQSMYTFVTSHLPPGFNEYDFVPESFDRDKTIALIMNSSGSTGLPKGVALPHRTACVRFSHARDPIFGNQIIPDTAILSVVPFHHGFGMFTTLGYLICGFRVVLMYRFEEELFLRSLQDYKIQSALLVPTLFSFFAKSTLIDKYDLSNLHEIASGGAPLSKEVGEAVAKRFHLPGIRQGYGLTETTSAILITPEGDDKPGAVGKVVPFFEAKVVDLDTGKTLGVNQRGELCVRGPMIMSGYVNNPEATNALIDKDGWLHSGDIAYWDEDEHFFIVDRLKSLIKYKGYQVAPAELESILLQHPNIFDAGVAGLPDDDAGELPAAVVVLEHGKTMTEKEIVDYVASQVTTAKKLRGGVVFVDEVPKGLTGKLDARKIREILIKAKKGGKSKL

HEK293 = test: EBV LMP1 TES2 canonical NF-kB signalling blockers – cell-based, HEK293, luciferase, cherry-pick, dose response (AID 588343); assay type: functional; conditions: Homo sapiens
HT-1080 = test: HT1080 cell viability loss – fluorescence readout (AID 620); assay type: functional, cell-based; conditions: Homo sapiens
[16] = toxicity to human hepatoma HepG2 cells – cell-based, cherry-picked samples, cytotoxicity control, dose response (AID 1159577); assay type: functional
[17] = P. falciparum Dd2 growth inhibitors, dose response, SYBR Green, cherry-picked samples (AID 1159567); assay type: functional, cell-based
[18] = Dd2 parasite growth inhibition in erythrocytes – SYBR Green, dry powder samples, set 9, dose response (AID 1159568); assay type: functional, cell-based
[19] = growth inhibition of PfATP4-mutant resistant parasites – NITD609-resistant line, SYBR Green, dry powder, dose response (AID 1159571); assay type: functional, cell-based;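 further: parasites synchronized at ring stage by sorbitol before testing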
[20] = growth inhibition of yeast DHODH-expressing 3D7 parasites – SYBR Green, dry powder samples, dose response (AID 1159570); assay type: functional, cell-based;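 further: parasite growth measured after 72 hours of compound exposure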
[21] = toxicity to human HepG2 hepatoma cells – cell-based, plate reader, dry powder samples, cytotoxicity control, dose response (AID 1159569); assay type: functional;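 further: inhibitor potency with signal falling toward the positive control level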
[22] = Dd2 malaria parasite growth inhibition potency – SYBR Green, dry powder samples, dose response (AID 1159566); assay type: functional, cell-based;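 further: potency for growth inhibition with lower SYBR green DNA signal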

In the case of `COc1ccccc1NC(=O)c1coc(=O)c(Br)c1`, the IC50 [1] is reported as 0.658 µM (active).

In the case of `CS(=O)(=O)c1ccc(-c2cn3cc(C(=O)O)ccc3n2)cc1`, the IC50 [1] is reported as 2.5 µM (active) and the AC50 [2] is reported as 1.96 µM (active).

With `COc1ccc(-c2cc(-c3cc(C)ccc3O)[nH]n2)cc1` the IC50 [3] was 1.83 µM (active).

For `CCCCN(CC)Cc1ccc(CNC(=O)Nc2ccc(OC)cc2OC)o1`, the AC50 (Cytochrome P450 2C19) was 11.2 µM (inconclusive) and the EC50 [4] was > 50 µM (not active).

In the case of `COc1ccc(N(CC(=O)NC2CCCC2)C(=O)Cn2nnc(-c3ccc(C)cc3)n2)cc1OC`, the EC50 [4] is reported as > 50 µM (not active).

With `Cc1cc(=O)oc2c(CN3CCC(C)CC3)c(O)c(Cl)cc12` the IC50 [5] was > 66 µM (inactive), the IC50 (14-3-3 protein gamma) was 45.6 µM (not active) and the EC50 [6] was > 300 µM (not active). For the same molecule, the IC50 (Estrogen receptor) was 23.7 µM (active), the IC50 [7] was 37.7 µM (inactive) and the IC50 (Estrogen receptor beta) was 5.23 µM (not active). The IC50 (Aminopeptidase N) was 32.7 µM (active) and the EC50 [8] was > 300 µM (not active).

In the case of `COc1ccc(OCc2cc(C(=O)O)c(C)o2)cc1`, the IC50 [9] is reported as 51.7 µM (active).

For `Cc1noc(/C=C/c2ccco2)c1S(=O)(=O)N1CCC(C(=O)N2c3ccccc3CC2C)CC1` (stereo not given), the EC50 [10] was 1.66 µM (active), the IC50 (Protein Tat) was > 100 µM (active) and the CC50 [11] was 39.7 µM (active). For the same molecule, the EC50 [12] was > 60 µM (not active).

With `CC(=O)c1ccc(-c2ccc(C(=O)Nc3nc(C)c(C(C)=O)s3)o2)cc1` the IC50 [13] was 9.53 µM (active) and the IC50 [14] was 8.01 µM (active).

In the case of `COc1cccc(C(=O)Nc2nc3ccccc3[nH]2)c1`, the CC50 [11] is reported as > 40 µM (active), the EC50 [15] is reported as 0.75 µM (active) and the AC50 (HEK293) is reported as 3.29 µM (active). The EC50 (HT-1080) was > 50 µM (not active).

In the case of `Cc1cccc(-c2ccc([C@@H]3[C@@H]4CN(C(=O)CN(C)C)C[C@H]3N4)cc2)c1`, the AC50 [16] is reported as 32.1 µM (active), the AC50 [17] is reported as 3.46 µM (active) and the AC50 [18] is reported as 4.19 µM (active).

For `C[C@@H]1CN([C@@H](C)CO)C(=O)c2cccc(NC(=O)c3nc4ccccc4s3)c2O[C@H]1CN(C)C(=O)Nc1ccc(C(F)(F)F)cc1`, the AC50 [19] was 0.323 µM (active), the AC50 [20] was 0.274 µM (active) and the AC50 [17] was 1.06 µM (active). The AC50 [21] was > 100 µM (inactive) and the AC50 [22] was 0.245 µM (active).

For `CCCC(=O)N1CCC2(CC1)CN(S(=O)(=O)c1ccc(C)cc1)[C@@H](CO)c1[nH]c3cc(OC)ccc3c12`, the AC50 [19] was 0.115 µM (active), the AC50 [20] was 0.137 µM (active) and the AC50 [17] was < 0.3 µM (active). For the same molecule, the AC50 [21] was 77.5 µM (active), the AC50 [22] was 0.0986 µM (active) and the AC50 [18] was 0.182 µM (active).
